These results are taken from patent US20070161547A1, “Modulation of survivin expression” (priority 2003, published 2007).

This data set concerns survivin protein. In words: IC50 of dsRNA for survivin protein, quantitative Western blot ("W"). To be noted: W (Western blot), HeLa cells. The class given is cell-based, human. The method, then: Western blot analysis (immunoblot analysis) is carried out using standard methods. Cells are harvested 16-20 hours after oligonucleotide treatment, washed once with PBS, suspended in Laemmli buffer (100 μl/well), boiled for 5 minutes and loaded on a 16% SDS-PAGE gel. Gels are run for 1.5 hours at 150 V, and transferred to membrane for western blotting. Appropriate primary antibody directed to survivin is used, with a radiolabelled or fluorescently labeled secondary antibody directed against the primary antibody species. Bands are visualized using a PHOSPHORIMAGER™ (Molecular Dynamics, Sunnyvale, Calif.).
For western blot analysis, cells are plated in 10 cm tissue culture dishes (Falcon, #3003) at a density of 7.5×10^5 cells/dish. For RT-PCR analysis, 96-well plates (Corning Incorporated, #3596) are plated with 1×10^4 cells/well. Lipofectin (GIBCO/Invitrogen) transfection reagent is used at a concentration of 3 ul/ml OPTIMEM reduced serum medium (Gibco/Invitrogen)/100 nM siRNA duplex. Lipofectin reagent is incubated with OPTIMEM medium for 30 minutes prior to the addition of siRNA. The desired amount of siRNA is added and mixed. Further 1:1 dilutions are performed in OPTIMEM. Cells are washed twice with 1× phosphate buffered saline and then treated with the siRNA/Lipofectin mixture in OPTIMEM. After a 4 hr incubation period, OPTIMEM medium is replaced with complete growth medium. Cells are harvested after additional 16-20 hrs for Western blot or RT-PCR analysis.
At the end of the incubation period culture medium is removed and cells are washed twice with PBS. Cells are lysed in RIPA buffer (20 mM Tris-HCl, pH 7.4, 5 mM EDTA, 50 mM NaCl, 10 mM Sodium Pyrophosphate, 50 mM Sodium Fluoride, and 1% Nonidet P40) plus Complete™ Mini protease inhibitor tablets (Roche, #1836153) and 1 mM Sodium orthovanadate (Sigma) by directly adding buffer to the plate. Lysates are collected by scrapping, transferred to microfuge tubes and cleared from the cellular debris by centrifugation at 14,000 rpm for 30 minutes at 4° C. Protein concentrations are determined using BCA protein assay yeagents (Pierce). Total cellular protein is subjected to SDS-PAGE and transferred onto Immobilon-P membranes (Millipore, #IPVHO91). Membranes are probed with primary antibodies to survivin (R&D Systems, #AF886) and to β-Actin (Sigma, #A5441). Horseradish peroxidase linked Anti-rabbit Ig, and anti-mouse Ig, antibodies (Pharmacia) are used as secondary antibodies. Antigen-antibody complexes are visualized by incubation of membrane in SuperSigmal West Pico chemiluminescence reagents (Pierce) for 5 minutes followed by capturing of the chemiluminescence using Fluor-S imager (Biorad) equipped with the cool CCD camera. The protein bands of interest for each sample are quantified using Quantity One software (Biorad). The percentage inhibition for each samples are calculated by comparing the survivin/Actin protein ratio for the sample to survivin/Actin protein ratio for the untreated control. The IC50 is derived from the non-linear regression analysis of the percentage inhibition data using GraphPad Prism software (GraphPad Software).
The constructs tested comprise the antisense strand in the 5′-3′ orientation, and the sense strand in the 5′ to 3′ orientation, In Table 15, “D” is dose response (mRNA levels) and “W” is Western blot. All internucleoside linkages are phosphodiester unless otherwise noted by a lowercase “s” indicating a phosphorothioate linkage.
With “339056_339086 (antisense UAAGGAACCUGCAGCUCAGA; sense UCUGAGCUGCAGGUUCCUUA; siRNA; unmodified RNA)”, inhibition was half-maximal at 7.5 nM (IC50).

In the case of “339058_339088 (antisense AACAAAAUAAGAAAGCCAUG; sense CAUGGCUUUCUUAUUUUGUU; siRNA; unmodified RNA)”, the IC50 (commonly the concentration needed to halve the response being measured) worked out at 7.23 nM.

In turn, “339045_339075 (antisense AUCCAUGGCAGCCAGCUGCU; sense AGCAGCUGGCUGCCAUGGAU; siRNA; unmodified RNA)” registered an IC50 of 5.5 nM.

“339052_339082 (antisense GCAAAAGGGACACUGCCUUC; sense GAAGGCAGUGUCCCUUUUGC; siRNA; unmodified RNA)”: the IC50 is no less than 100 nM.

“339048_339078 (antisense AUUUGAAAAUGUUGAUCUCC; sense GGAGAUCAACAUUUUCAAAU; siRNA; unmodified RNA)” yielded an IC50 of 3.97 nM.

Substance “339060_339090 (antisense AGUUUGUGCUAUUCUGUGAA; sense UUCACAGAAUAGCACAAACU; siRNA; unmodified RNA)” yielded an IC50 of 4.43 nM.
